Measured values as given in US10561681B2, “Antimetastatic 2H-selenopheno[3,2-h]chromenes, synthesis thereof, and methods of using same agents” (Latvian Institute of Organic Synthesis, priority 2016, dated 2020).

Tested on: Lewis lung carcinoma (LLC)
Test: Mouse non-metastatic cancer model, Lewis lung carcinoma s.c. in BALB/c mice
Assay type: in vivo
Details: s.c. Day 1, 2, 3, 4, 7, 8, 9, 10, 11; dose 20 mg/kg, total dose 180 mg/kg
Description: Six-week-old female ICR and BALB/c mice were purchased from the University of Tartu Laboratory Animal Centre (Estonia). The mice were housed five to a cage, and under standard conditions (21-23° C., 12 h light: dark cycle), fed ad libitum (R3 diet, Lactamin AB, Kimstad, Sweden) and observed daily. The experimental procedures involving experimental animals were carried out in accordance with the guidelines of the European Community, local laws and policies, and were approved by the Latvian Animal Protection Ethical Committee, the Food and Veterinary Service, Riga, Latvia.
In vivo studies were performed utilizing the mouse sarcoma CCRF-S180 II (CCL-8) and Lewis lung carcinoma (LLC) cell line. All cell lines were purchased from ATCC. The cells were grown in Dulbecco's modified Eagle's medium (Sigma) supplemented with 10% fetal calf serum (Sigma).
ICR mice were subcutaneously inoculated in the back with 5×10^6 CCL-8 cells and BALB/c mice were inoculated with 1×10^6 LLC (Lewis Lung Carcinoma) cells, which were suspended in 0.1 mL of PBS on day zero of the study. The compounds dissolved in DMSO and then in 0.1 mL water (DMSO final concentration 1%) were injected s.c. Mice in the untreated group were similarly given doses of 0.1 mL of water with DMSO. Tumor volume (tumor volume V=[…], a is maximal and b the minimal tumor diameter) was recorded twice per week. […]

In the case of `COC(=O)c1cc2ccc3c(Br)c(CN4CCN(C)CC4)[se]c3c2oc1=O` [Compound I-10, Methyl 7-bromo-8-((4-methylpiperazin-1-yl)methyl)-2-oxo-2H-selenopheno[3,2-h]chromene-3-carboxylate], the “Anticancer activity in vivo (inhibition, %), Lewis Lung Carcinoma primary tumor growth” value is reported as 34%.
